In PubChem BioAssay (NCI) one finds TGI data, which are given here for 9 molecules.

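In this assay, cells in 96-well plates receive the compound at five concentrations for 48 hours. Endpoints are linearly interpolated between the surrounding concentrations. TGI: total growth inhibition.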

Some test systems named below: T-47D breast; HCT-116 colon; SK-MEL-2 melanoma; HT29 colon; UACC-62 melanoma; HOP-62 NSCLC; CCRF-CEM leukemia; DU-145 prostate; U251 CNS; NCI/ADR-RES ovarian; COLO 205 colon; SF-268 CNS; A549 NSCLC; 786-0 renal; SF-539 CNS.
Holding throughout (assay): growth of human tumour cells (NCI), 48 h

Turning to `CSc1nc(C)c2c(n1)N(c1ccc(Cl)cc1)CC2`, the TGI with T-47D breast, with HCT-116 colon, in the experiment on SK-MEL-2 melanoma, with HT29 colon, in the experiment with UACC-62 melanoma and in the experiment on HOP-62 NSCLC was greater than 100 µM throughout. In addition, the TGI in the experiment with CCRF-CEM leukemia, in the experiment on DU-145 prostate, in the experiment on U251 CNS, in the experiment on NCI/ADR-RES ovarian, in the experiment on COLO 205 colon and with SF-268 CNS was greater than 100 µM in each case. Besides, the TGI in the experiment with A549 NSCLC, in the experiment with 786-0 renal and in the experiment on SF-539 CNS was greater than 100 µM each time.

Consider `O=C(O)CCC1NC(/C(=C/c2ccccc2O)NC(=O)c2ccccc2)OC1=O` (stereo not given), for which the TGI with T-47D breast is greater than 100 µM; with HCT-116 colon it was greater than 100 µM; with SK-MEL-2 melanoma, greater than 100 µM; in the experiment on HT29 colon, greater than 100 µM; with UACC-62 melanoma it was greater than 100 µM; in the experiment on HOP-62 NSCLC, 62.4 µM. Besides, the TGI in the experiment on CCRF-CEM leukemia, with DU-145 prostate, in the experiment with U251 CNS, in the experiment with NCI/ADR-RES ovarian, in the experiment on COLO 205 colon and with SF-268 CNS was greater than 100 µM in each case. In addition, the TGI in the experiment on A549 NSCLC, in the experiment with 786-0 renal and in the experiment on SF-539 CNS was greater than 100 µM in each case.

As to `CC(CC=O)Nc1nn2c(=O)c3ccccc3nc2s1` (stereo not given), the TGI with T-47D breast, with HCT-116 colon, in the experiment on SK-MEL-2 melanoma, with HT29 colon, with UACC-62 melanoma and in the experiment on HOP-62 NSCLC was greater than 100 µM each time. Also, the TGI in the experiment on CCRF-CEM leukemia, with DU-145 prostate, in the experiment with U251 CNS, in the experiment with NCI/ADR-RES ovarian, in the experiment with COLO 205 colon and in the experiment on SF-268 CNS was greater than 100 µM throughout. Further, the TGI in the experiment with A549 NSCLC, with 786-0 renal and with SF-539 CNS was greater than 100 µM in each case.

On to `COc1cc2c(cc1OC)C(=O)N(c1ccc(OCCN3CCCC3)cc1)C2=O`, for which the TGI with T-47D breast, in the experiment with HCT-116 colon, in the experiment with SK-MEL-2 melanoma, with HT29 colon, with UACC-62 melanoma and in the experiment on HOP-62 NSCLC was greater than 100 µM each time. The TGI with CCRF-CEM leukemia, with DU-145 prostate, with U251 CNS, in the experiment on NCI/ADR-RES ovarian, in the experiment with COLO 205 colon and with SF-268 CNS was greater than 100 µM throughout. Also, the TGI in the experiment with A549 NSCLC, in the experiment on 786-0 renal and in the experiment on SF-539 CNS was greater than 100 µM throughout.

For `Cn1c(=O)c2c(nc(N/N=C3/SCC(=O)N3Cc3ccccc3)n2C)n(C)c1=O`, the TGI with T-47D breast, in the experiment on HCT-116 colon, with SK-MEL-2 melanoma, in the experiment on HT29 colon, with UACC-62 melanoma and in the experiment with HOP-62 NSCLC was greater than 100 µM in each case. Further, the TGI in the experiment with CCRF-CEM leukemia, in the experiment on DU-145 prostate, in the experiment on U251 CNS, in the experiment with NCI/ADR-RES ovarian, in the experiment with COLO 205 colon and in the experiment on SF-268 CNS was greater than 100 µM throughout. For the same molecule, the TGI in the experiment with A549 NSCLC, in the experiment on 786-0 renal and in the experiment on SF-539 CNS was greater than 100 µM in each case.

For `Cc1cc(=O)n2nc(CSc3nnc(Sc4cc(O)ccc4O)s3)sc2n1`, the TGI in the experiment on T-47D breast was 73.6 µM; in the experiment with HCT-116 colon it was 41.2 µM; in the experiment with SK-MEL-2 melanoma, greater than 100 µM; in the experiment with HT29 colon it was greater than 100 µM; in the experiment with UACC-62 melanoma, greater than 100 µM; in the experiment on HOP-62 NSCLC it was greater than 100 µM. In addition, the TGI was 48.6 µM in the experiment with CCRF-CEM leukemia; greater than 100 µM in the experiment on DU-145 prostate; greater than 100 µM in the experiment on U251 CNS; greater than 100 µM with NCI/ADR-RES ovarian; greater than 100 µM in the experiment with COLO 205 colon; greater than 100 µM with SF-268 CNS. The TGI in the experiment on A549 NSCLC, in the experiment with 786-0 renal and in the experiment with SF-539 CNS was greater than 100 µM each time.

Take `CCC1CN2CCc3c([nH]c4ccccc34)[C@@](C(=O)OC)(c3cc4c(cc3OC)N(C)C3C(O)(C(=O)OC)C(C(=O)OC)C5(CC)C=CCN6CCC43C65)C[C@@H](C2)[C@@H]1C(C)(C)C` (stereo not given in full): the TGI with T-47D breast was greater than 10 µM; in the experiment with HCT-116 colon it was 2.85 µM; in the experiment on SK-MEL-2 melanoma, greater than 4.02 µM; in the experiment on HT29 colon it was greater than 2.64 µM; in the experiment with UACC-62 melanoma, greater than 10 µM; in the experiment on HOP-62 NSCLC it was 1.25 µM. Besides, the TGI with CCRF-CEM leukemia is greater than 5.53 µM; with DU-145 prostate, 9.32 µM; in the experiment with U251 CNS, greater than 3.52 µM; in the experiment with NCI/ADR-RES ovarian it was greater than 7.23 µM; with COLO 205 colon, greater than 6.1 µM; in the experiment with SF-268 CNS, greater than 10 µM. Further, the TGI in the experiment on A549 NSCLC was greater than 10 µM; in the experiment with 786-0 renal it was 7.16 µM; in the experiment with SF-539 CNS, 2.31 µM.

In the case of `c1cc2c(cc1[C@@H]1OC[C@@H]3[C@H]1CO[C@H]3c1ccc3c(c1)OCO3)OCO2`, the TGI in the experiment with T-47D breast, in the experiment on HCT-116 colon, in the experiment on SK-MEL-2 melanoma, in the experiment on HT29 colon, in the experiment with UACC-62 melanoma and in the experiment with HOP-62 NSCLC was greater than 100 µM each time. In addition, the TGI in the experiment with CCRF-CEM leukemia, with DU-145 prostate, with U251 CNS, in the experiment with NCI/ADR-RES ovarian, with COLO 205 colon and in the experiment with SF-268 CNS was greater than 100 µM each time. Further, the TGI in the experiment with A549 NSCLC, with 786-0 renal and in the experiment with SF-539 CNS was greater than 100 µM each time.

Regarding `CC(=O)N[C@@H](Cc1ccc(O)cn1)C(=O)NC1CCCCC1`, the TGI in the experiment on T-47D breast, in the experiment with HCT-116 colon, with SK-MEL-2 melanoma, with HT29 colon, in the experiment with UACC-62 melanoma and with HOP-62 NSCLC was greater than 100 µM each time. The TGI with CCRF-CEM leukemia, in the experiment on DU-145 prostate, in the experiment on U251 CNS, with NCI/ADR-RES ovarian, in the experiment with COLO 205 colon and with SF-268 CNS was greater than 100 µM throughout. In addition, the TGI in the experiment on A549 NSCLC, with 786-0 renal and in the experiment on SF-539 CNS was greater than 100 µM throughout.
